The nature of data set [1]: Experimental measurement of the barriers to rotation (racemization followed by chiral HPLC). In kind it is physicochemical. As to the method: The enantiomerically enriched analogues were then dissolved in ethanol and placed in a sealed 2-dram vial and heated under constant temperature on an aluminum block. At each time point, an aliquot of the mixture was removed and quenched in an HPLC vial containing ice cold 80:20 hexanes:ethanol. […] The timepoint and enantiomeric excess (ee) data was then plotted in order to determine an observed rate constant, kobs, at the corresponding temperature. The barrier to rotation was then calculated using the relationship of kracemization=2*kenantiomerization and then substituted into the Gibbs Free Energy Equation:
[formula] where h=Planck Constant, kb=Boltzmann Constant, T=Temp. (K), R=Gas Constant.

Data set [2] relates to panel of tyrosine kinases. In words: Kinase inhibitor profiling across a panel of tyrosine kinases (Z′-LYTE), selectivity score. In kind it is biochemical. Here is the method: To analyze each analog's selectivity across the panel we turned to selectivity scores (Davis et al., Nat. Biotechnol. 2011, 29, 1046-51), simply the number of kinases inhibited above a certain threshold divided by the number of kinases evaluated. […] For example at 1000 nM 2e-(R) yielded an S(40%) of 0.11 while 2e-(S) gave an S(40%) of 0.16. […] Differences in selectivity between 2e-(R) and 2e-(S) at 5000 nM (4.5 times the IC50 of 2e-(S) toward Src) and for 5 at 1000 nM (6.25 times the IC50 of 5 toward Src) can be viewed graphically across tyrosine kinases (FIG. 3). Importantly, similar trends were also observed across each of the atropisomeric series tested.
All samples were sent out to Life Technologies to obtain kinase inhibition data. A brief description of the assays and analyses are included below.
Assay Theory (SelectScreen® Kinase Profiling Services (Life Technologies, Madison, Wis. USA). The Z′-LYTE® biochemical assay employs a fluorescence-based, coupled-enzyme format and is based on the differential sensitivity of phosphorylated and non-phosphorylated peptides to proteolytic cleavage. The peptide substrate is labeled with two fluorophores—one at each end—that make up a FRET pair.
In the primary reaction, the kinase transfers the gamma-phosphate of ATP to a single tyrosine, serine or threonine residue in a synthetic FRET-peptide. In the secondary reaction, a site-specific protease recognizes and cleaves non-phosphorylated FRET-peptides. Phosphorylation of FRET-peptides suppresses cleavage by the Development Reagent. Cleavage disrupts FRET between the donor (i.e., coumarin) and acceptor (i.e., fluorescein) fluorophores on the FRET-peptide, whereas uncleaved, phosphorylated FRET-peptides maintain FRET. A ratiometric method, which calculates the ratio (the Emission Ratio) of donor emission to acceptor emission after excitation of the donor fluorophore at 400 nm, is used to quantitate reaction progress, as shown in the equation below: […]
A significant benefit of this ratiometric method for quantitating reaction progress is the elimination of well-to-well variations in FRET-peptide concentration and signal intensities. As a result, the assay yields very high Z′-factor values (>0.7) at a low percent phosphorylation. Both cleaved and uncleaved FRET-peptides contribute to the fluorescence signals and therefore to the Emission Ratio. The extent of phosphorylation of the FRET-peptide can be calculated from the Emission Ratio. The Emission Ratio will remain low 1f the FRET-peptide is phosphorylated (i.e., no kinase inhibition) and will be high 1f the FRET-peptide is non-phosphorylated (i.e., kinase inhibition).
Both cleaved and uncleaved FRET-peptides contribute to the fluorescence signals and therefore to the Emission Ratio. The extent of phosphorylation of the FRET-peptide can be calculated from the Emission Ratio. The Emission Ratio will remain low 1f the FRET-peptide is phosphorylated (i.e., no kinase inhibition) and will be high 1f the FRET-peptide is non-phosphorylated (i.e., kinase inhibition).

For `COc1ccc(Cl)c(-c2c(Cl)n(C3CCCC3)c3ncnc(N)c23)c1` (racemic) [Compound 1e, 6-chloro-5-(2-chloro-5-methoxyphenyl)-7-cyclopentyl-7H-pyrrolo[2,3-d]pyrimidin-4-amine], the “t1/2 to Racemization at 37° C.” value in data set [1] came to 18 days.

As for `COc1ccc(Cl)c(-c2c(Cl)n(C(C)(C)C)c3ncnc(N)c23)c1` (single isomer, unassigned) [2e-(R), 7-(tert-butyl)-6-chloro-5-(2-chloro-5-methoxyphenyl)-7H-pyrrolo[2,3-d]pyrimidin-4-amine], the “S(40%): number of kinases inhibited greater than 40% divided by number of kinases tested (including Src)” value in data set [2] (1000 nM) was 0.11; in data set [2] (5000 nM) it was 0.44.

For `COc1ccc(Cl)c(-c2c(Cl)n(C(C)(C)C)c3ncnc(N)c23)c1` (single isomer, unassigned) [2e-(S), 7-(tert-butyl)-6-chloro-5-(2-chloro-5-methoxyphenyl)-7H-pyrrolo[2,3-d]pyrimidin-4-amine], the “S(40%): number of kinases inhibited greater than 40% divided by number of kinases tested (including Src)” value in data set [2] (1000 nM) stood at 0.16; in data set [2] (5000 nM) it was 0.61.

With `COc1cccc(-c2cn(C(C)(C)C)c3ncnc(N)c23)c1` [Compound 5, reference compound], the “S(40%): number of kinases inhibited greater than 40% divided by number of kinases tested (including Src)” value is recorded as 0.44 in data set [2] (200 nM) and 0.72 in data set [2] (1000 nM). In addition, in data set [2] (200 nM and 1000 nM), the “activity for the tyrosine kinase panel tested” value is “near pan activity”.

(Values after patent US11345707B2, “Atropisomerism for increased kinase inhibitor selectivity” (SAN DIEGO STATE UNIVERSITY RESEARCH FOUNDATION, priority 2015, dated 2022).)
